Assays:
[1] = Effect of 1 mM sodium tungstate on subcutaneous formulation (Table 16), HPLC Method A; type: physicochemical; as to Ring Contraction Degradant: key: BRL=below recordable limit
[2] = white crystalline powder from Mallinckrodt; cited from earlier work
[3] = Buffer compatibility: stability of MNTX in pH 7 phosphate or glycine solution (Tables 9, 10), HPLC Method A; type: physicochemical
From the text: Evaluation of phosphate buffers solution stability. We have also assessed different buffers to determine compatibility and whether various conditions would convey further stability to methylnaltrexone solutions. Table 9 and Table 10 show results (HPLC Method A) of total degradant formation over time in methylnaltrexone solutions prepared in phosphate solution (Table 9), and glycine solution (Table 10). We found at pH 7, glycine provides better stability characteristics to samples than phosphate.

Q: With `C[N+]1(CC2CC2)CC[C@]23c4c5ccc(O)c4O[C@H]2C(=O)CC[C@@]3(O)[C@H]1C5` (stereo partly shown) [MNTX, methylnaltrexone bromide] as the compound, how does the “7-Dihydroxy MNTX” value ([1]; 40° C., 1 hour) read?
A: BRL

Q: What about the “O-Methyl MNTX” value ([1]; 40° C., 1 hour) of the same compound?
A: 0.12

Q: And the “Ring Contraction Degradant” value ([1]; 40° C., 1 hour)?
A: BRL

Q: What about the Total ([1]; 40° C., 1 hour) of the same compound?
A: 0.12

Q: And the “7-Dihydroxy MNTX” value ([1]; 40° C., 2 hours)?
A: 0.02

Q: What about the “O-Methyl MNTX” value ([1]; 40° C., 2 hours) of the same compound?
A: 0.12

Q: And the “Ring Contraction Degradant” value ([1]; 40° C., 2 hours)?
A: BRL

Q: What about the Total ([1]; 40° C., 2 hours) of the same compound?
A: 0.14

Q: And the “7-Dihydroxy MNTX” value ([1]; 40° C., 3 hours)?
A: 0.02

Q: And the “O-Methyl MNTX” value ([1]; 40° C., 3 hours)?
A: 0.12

Q: What about the “Ring Contraction Degradant” value ([1]; 40° C., 3 hours) of the same compound?
A: BRL

Q: And the Total ([1]; 40° C., 3 hours)?
A: 0.14

Q: And the “7-Dihydroxy MNTX” value ([1]; 40° C., 4 hours)?
A: 0.02

Q: What about the “O-Methyl MNTX” value ([1]; 40° C., 4 hours) of the same compound?
A: 0.12

Q: And the “Ring Contraction Degradant” value ([1]; 40° C., 4 hours)?
A: BRL

Q: What about the Total ([1]; 40° C., 4 hours) of the same compound?
A: 0.14

Q: And the “7-Dihydroxy MNTX” value ([1]; 40° C., 5 hours)?
A: 0.03

Q: What about the “O-Methyl MNTX” value ([1]; 40° C., 5 hours) of the same compound?
A: 0.12

Q: And the “Ring Contraction Degradant” value ([1]; 40° C., 5 hours)?
A: BRL

Q: And the Total ([1]; 40° C., 5 hours)?
A: 0.15

Q: What about the “7-Dihydroxy MNTX” value ([1]; 40° C., Initial) of the same compound?
A: BRL

Q: And the “O-Methyl MNTX” value ([1]; 40° C., Initial)?
A: 0.12

Q: What about the “Ring Contraction Degradant” value ([1]; 40° C., Initial) of the same compound?
A: BRL

Q: And the Total ([1]; 40° C., Initial)?
A: 0.12

Q: What about the “7-Dihydroxy MNTX” value ([1]; Room Temperature, 1 hour) of the same compound?
A: BRL

Q: What about the “O-Methyl MNTX” value ([1]; Room Temperature, 1 hour) of the same compound?
A: 0.12

Q: And the “Ring Contraction Degradant” value ([1]; Room Temperature, 1 hour)?
A: BRL

Q: What about the Total ([1]; Room Temperature, 1 hour) of the same compound?
A: 0.12

Q: And the “7-Dihydroxy MNTX” value ([1]; Room Temperature, 2 hours)?
A: 0.02

Q: What about the “O-Methyl MNTX” value ([1]; Room Temperature, 2 hours) of the same compound?
A: 0.12

Q: What about the “Ring Contraction Degradant” value ([1]; Room Temperature, 2 hours) of the same compound?
A: BRL

Q: And the Total ([1]; Room Temperature, 2 hours)?
A: 0.14

Q: What about the “7-Dihydroxy MNTX” value ([1]; Room Temperature, 3 hours) of the same compound?
A: 0.02

Q: What about the “O-Methyl MNTX” value ([1]; Room Temperature, 3 hours) of the same compound?
A: 0.12

Q: And the “Ring Contraction Degradant” value ([1]; Room Temperature, 3 hours)?
A: BRL

Q: And the Total ([1]; Room Temperature, 3 hours)?
A: 0.14

Q: What about the “7-Dihydroxy MNTX” value ([1]; Room Temperature, 4 hours) of the same compound?
A: 0.02

Q: And the “O-Methyl MNTX” value ([1]; Room Temperature, 4 hours)?
A: 0.12

Q: What about the “Ring Contraction Degradant” value ([1]; Room Temperature, 4 hours) of the same compound?
A: BRL

Q: What about the Total ([1]; Room Temperature, 4 hours) of the same compound?
A: 0.14

Q: And the “7-Dihydroxy MNTX” value ([1]; Room Temperature, 5 hours)?
A: 0.02

Q: And the “O-Methyl MNTX” value ([1]; Room Temperature, 5 hours)?
A: 0.12

Q: What about the “Ring Contraction Degradant” value ([1]; Room Temperature, 5 hours) of the same compound?
A: BRL

Q: What about the Total ([1]; Room Temperature, 5 hours) of the same compound?
A: 0.14

Q: What about the “7-Dihydroxy MNTX” value ([1]; Room Temperature, Initial) of the same compound?
A: BRL

Q: What about the “O-Methyl MNTX” value ([1]; Room Temperature, Initial) of the same compound?
A: 0.12

Q: And the “Ring Contraction Degradant” value ([1]; Room Temperature, Initial)?
A: BRL

Q: And the Total ([1]; Room Temperature, Initial)?
A: 0.12

Q: What about the solubility in water [2] of the same compound?
A: freely soluble in water

Q: What about the “Appearance and Description” value ([3]; pH 7, 0.02M Glycine Solution, 40° C., r24 0 time, r26 1 day, r28 2 days, r30 6 days, r32 9 days, r34 14 days, r36 21 days) of the same compound?
A: Clear, colorless

Q: What about the “Appearance and Description” value ([3]; pH 7, 0.02M Glycine Solution, Room Temperature, r8 0 time, r11 1 day, r13 2 days, r15 6 days, r18 9 days, r20 14 days, r22 21 days) of the same compound?
A: Clear, colorless

Q: What about the “Appearance and Description” value ([3]; pH 7, 0.02M Phosphate Solution, 40° C., r22 0 time, r24 1 day, r26 2 days, r28 6 days, r30 9 days, r32 14 days, r35 21 days, elapsed 0 time) of the same compound?
A: Clear, colorless

Q: And the “Appearance and Description” value ([3]; pH 7, 0.02M Phosphate Solution, 60° C., r38 0 time, r40 1 day, r42 2 days, r44 6 days, r46 9 days, r48 14 days, r50 21 days, elapsed 0 time)?
A: Clear, colorless

Q: And the “Appearance and Description” value ([3]; pH 7, 0.02M Phosphate Solution, 60° C., r38 0 time, r40 1 day, r42 2 days, r44 6 days, r46 9 days, r48 14 days, r50 21 days, elapsed 9 days)?
A: Clear, yellow

Q: What about the “Appearance and Description” value ([3]; pH 7, 0.02M Phosphate Solution, Room Temperature, r8 0 time, r10 1 day, r12 2 days, r14 6 days, r16 9 days, r18 14 days, r20 21 days) of the same compound?
A: Clear, colorless
